From patent publication US20190151283A1, “NON-STEROIDAL SELECTIVE GLUCOCORTICOID RECEPTOR AGONISTIC MODULATORS (SEGRAMs) AND USES THEREOF” (ASSOCIATION POUR LA RECHERCHE À L'IGBMC (ARI), priority 2017, published 2019)

What was measured:
Assay type in all cases: in vivo, mouse
Male mice (DBA-1 strain) = assay: Collagen-induced arthritis (CIA)
Description: Mice were treated with collagen to induce a Th17 rheumatoid arthritis-like inflammation as described by Inglis et al. (2007. Arthritis Res Ther. 9(5):R113) and Geboes et al. (2009. Arthritis Rheum. 60(2):390-5).
Male mice (DBA-1 strain) were subcutaneously-injected with 100 μg collagen per mouse on D0. The hind paw thickness at the ankle level was regularly measured with a caliper. When the ankle thickness had reached around 4 mm (T0, i.e., 30 to 50 days after the collagen injection on D0), mice were daily intraperitoneally-injected for 10 days (T0 to T10) with either vehicle (NaCl 0.9%), Dex, CpdX, CpdX(eA), CpdX(eB), CpdX-D3, CpdX-D3(eA) or CpdX-D3(eB) (1 mg/kg body weight diluted in NaCl 0.9%), and the hind paw thickness at the ankle level was daily measured with a caliper. Pictures of the hind paws were taken at days T0 and T10 (before and after the treatment with either Vehicle, Dex, CpdX, CpdX(eA), CpdX(eB), CpdX-D3, CpdX-D3(eA) or CpdX-D3(eB)), in order to assess the course of swelling.
RNA transcripts were extracted from whole hind paws of collagen-untreated and collagen-treated mice at T0 and T10. IL-1β, IL-6, IL-17a, IL-17f and TNFα transcripts were analyzed by q-RT-PCR.

B6 male mice [1] = assay: Corticosterone synthesis and adrenal gland after three-month treatment; details: for plasmatic corticosterone level: at 10 a.m., compared to control mice (Vehicle); for cortex layers, most notably the fasciculata zone, of the adrenal glands / glomerulosa zone of the adrenal cortex / transcripts of Cyp11a, Cyp11b1 and HSD3β genes in adrenal glands: three months; for cortex layers, most notably the fasciculata zone, of the adrenal glands / glomerulosa zone of the adrenal cortex: histology; for glomerulosa zone of the adrenal cortex: 'but not' = not decreased; for transcripts of Cyp11a, Cyp11b1 and HSD3β genes in adrenal glands: q-RT-PCR
Description: (§1) B6 male mice (8-week-old) were daily subjected for three months to either a subcutaneous injection of vehicle (NaCl 0.9%), Dex, CpdX, CpdX(eA), CpdX(eB), CpdX-D3, CpdX-D3(eA) or CpdX-D3(eB) (1 mg/kg body weight, diluted in vehicle).
Following this long-term treatment, blood was collected at 10 a.m. and 6 p.m. by retro-orbital puncture in lithium-heparin coated vials, and the plasmatic level of corticosterone was determined. Adrenal glands were harvested and weighted. RNA transcripts were extracted and transcripts of the Cyp11a, Cyp11b1, Cyp11b2 and HSD3β genes were analyzed by q-RT-PCR. Histological analyses of the adrenal glands were also carried out.

B6 male mice [2] = assay: Insulin level, insulin tolerance test and liver insulin signalling after three-month treatment; details: three months; conclusion
Description: B6 male mice (8-week-old) were subjected daily for three months to a subcutaneous injection of either vehicle (NaCl 0.9%), Dex, CpdX, CpdX(eA), CpdX(eB), CpdX-D3, CpdX-D3(eA) or CpdX-D3(eB) (1 mg/kg body weight, diluted in vehicle). After three months, the blood was collected at 10 a.m. by retro-orbital puncture in lithium-heparin coated vials, and the plasmatic level of insulin was determined.
For the intraperitoneal insulin tolerance test (IPITT), mice were fasted for 6 hours before test. The blood glucose concentration was measured both before (T0) and during a one-hour period after insulin i.p. injection (0.75 U/kg body weight).
Following this three-month treatment, liver samples were harvested and lysed in the RIPA buffer (20 mM Tris pH 8, 150 mM NaCl, 10% glycerol, 1% NP-40 and 2 mM EDTA). Antibodies from Cell Signaling were used to assess by Western-Blotting the relative level of p-IRS1 (S318), IRS-1, p-AKT (S473) and AKT.

Balb/C mice [3] = assay: Skin atrophy after 8-day topical treatment of dorsal skin; details: for epidermal thickness: eight-day topical treatment, morphometric analysis; for transcription of the REDD1 gene in dorsal skin: topical 8 days, 1 nmole/cm^2, 'but not' = not increased
Description: To investigate whether, similarly to Dex, a topical administration of CpdX could result in a skin atrophy, Balb/C mice were shaved on the dorsal skin. Ethanol (vehicle), Dex, CpdX or either one of its two enantiomers CpdX(eA) or CpdX(eB), as well as the deuterated form CpdX-D3 or either one of its two enantiomers CpdX-D3(eA) or CpdX-D3(eB), were topically applied onto the dorsal skin for 8 days.
Upon completion of the treatments, RNA transcripts were extracted from dorsal skin samples and the transcripts of Kindlin-1 and REDD1 genes were analyzed by q-RT-PCR. Histological and morphometric analyses of the dorsal skin were also performed.

B6 male mice [4] = assay: Organ weights (thymus, spleen, adrenal gland, kidney) after three-month treatment; details: s.c. 1 mg/kg daily, three months
Description: as §1, with “to” for “to either”, “of either” for “of”, “vehicle). Following these treatments, four organs (thymus, spleen, adrenal gland and kidney) were harvested and weighted.” for “vehicle).”

B6 male mice [5] = assay: Fatty liver after three-month treatment; details: three months; for transcripts of fatty acid synthase (FASN) and Stearoyl-CoA desaturase 1 (SCD1) in liver: q-RT-PCR, 'but not' = no increase; for blood cholesterol and bile acids' levels: 'but not' = no clear increase
Description: B6 male mice (8-week-old) were daily subjected for three months to a subcutaneous injection of either vehicle (NaCl 0.9%), Dex, CpdX, CpdX(eA), CpdX(eB), CpdX-D3, CpdX-D3(eA) or CpdX-D3(eB) (1 mg/kg body weight, diluted in vehicle). Following this treatment, blood was collected at 10 a.m. by retro-orbital puncture in lithium-heparin coated vials. The plasmatic levels of total cholesterol and bile acids were determined.
Liver samples were harvested. […] RNA transcripts were extracted from liver samples and the transcripts of fatty acid synthase (FASN) and Stearoyl-CoA desaturase 1 (SCD1) genes were analyzed by q-RT-PCR.

Balb/C mice [6] = assay: Dextran sodium sulfate (DSS)-induced ulcerative colitis; details: for pro-inflammatory genes overexpressed in DSS-induced ulcerative colitis (IL-1β, IL-6, IL-17a, IL-17f, TSLP, MMP13): colon, q-RT-PCR, D14; for colonic villus/crypt structure / mucosal and submucosal cell infiltration: i.p. 1 mg/kg on D11, D12, D13, H&E histology
Description: To investigate the anti-inflammatory activity of CpdX and CpdX-D3 on a Th17 ulcerative colitis, Balb/C mice were treated with 3% DSS in drinking water for 13 days, with or without an intraperitoneal administration of either Dex, CpdX, CpdX(eA), CpdX(eB), CpdX-D3, CpdX-D3(eA) or CpdX-D3(eB) (1 mg/kg of body weight) on D11, D12 and D13.
At D14, RNA transcripts were extracted from mouse colons. IL-1β, IL-6, IL-17a, IL-17f, TSLP and MMP13 transcripts were analyzed by q-RT-PCR. Colon samples were also harvested for histological analyses (with H&E staining).

plasmatic corticosterone level (B6 male mice [1])	cortex layers, most notably the fasciculata zone, of the adrenal glands (B6 male mice [1])	glomerulosa zone of the adrenal cortex (B6 male mice [1])	transcripts of Cyp11a, Cyp11b1 and HSD3β genes in adrenal glands (B6 male mice [1])	epidermal thickness (Balb/C mice [3])	transcription of the REDD1 gene in dorsal skin (Balb/C mice [3])	spleen weight (B6 male mice [4])	weight of the adrenal gland (B6 male mice [4])	transcripts of fatty acid synthase (FASN) and Stearoyl-CoA desaturase 1 (SCD1) in liver (B6 male mice [5])	blood cholesterol and bile acids' levels (B6 male mice [5])	Compound	RNA transcripts of the pro-inflammatory genes expressed in the hind paws (IL-1β, IL-6, IL-17a, IL-17f, TNFα) (Male mice (DBA-1 strain); q-RT-PCR, T10, 'but not' = not repressed)	insulin resistance (B6 male mice [2])	thymus apoptosis / thymus found (B6 male mice [4])	pro-inflammatory genes overexpressed in DSS-induced ulcerative colitis (IL-1β, IL-6, IL-17a, IL-17f, TSLP, MMP13) (Balb/C mice [6])	colonic villus/crypt structure (Balb/C mice [6])	mucosal and submucosal cell infiltration (Balb/C mice [6])	hind paw thickness at the ankle level (Male mice (DBA-1 strain); i.p. 1 mg/kg daily for 10 days (T0 to T10), 1 mg/kg)
much higher	markedly increased	but not	increased	not significantly decreased	but not	not decreased	increased	but not	but not	[2H]C([2H])([2H])Oc1ccc(F)cc1C(C)(C)CC(O)(CNc1ccc2c(c1)COC2=O)C(F)(F)F (centres unmarked) [CpdX-D3(eA), 5-{4-[2-(methoxy-D3)-5-fluorophenyl]-2-hydroxy-4-methyl-2-(trifluoromethyl)pentylamino}isobenzofuran-1(3H)-one]	similarly repressed	does not induce	did not result in any significant thymus apoptosis	similarly repressed	almost reestablished	significantly decreased	
much higher	markedly increased	but not	increased	not significantly decreased	but not	not decreased	increased	but not	but not	[2H]C([2H])([2H])Oc1ccc(F)cc1C(C)(C)CC(O)(CNc1ccc2c(c1)COC2=O)C(F)(F)F (centres unmarked) [CpdX-D3(eB), 5-{4-[2-(methoxy-D3)-5-fluorophenyl]-2-hydroxy-4-methyl-2-(trifluoromethyl)pentylamino}isobenzofuran-1(3H)-one]		does not induce	did not result in any significant thymus apoptosis	similarly repressed	almost reestablished	significantly decreased	no such decrease
